Measurements reported in US8957087B2, “Heterocyclic substituted acardite derivate and application thereof” (Jiangsu Provincial Institute of Materia Medica Co., Ltd., priority 2009, dated 2015).
Like-named read-outs stand apart in the source and are kept apart here.

Tests used:
[1] = system: Human colon cancer HT-29 transplantable tumor; assay: Human colon cancer HT-29 transplantable tumor in nude mice; conditions: HT-29 in nude mice, 60 mg/kg ig 9 times
mice S180 sarcoma = assay: Experimental therapeutic action on S180 sarcoma mice; conditions: mice S180 sarcoma, 60 mg/kg orally for 9 days
[2] = system: human umbilical vein endothelial cell HUVEC; assay: Growth of human umbilical vein endothelial cell HUVEC by CCK8 method; assay type: cell-based; conditions: Final concentration 1 x 1.0*10^(−5) mol/L
How it was run: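 HUVEC cells were grown in 1640 medium with 10% FBS, and growth was measured by the CCK8 method. OD values of drug and control wells were corrected by subtracting the blank-well OD.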

[3] = system: human liver cancer cell bel-7402 transplantation tumor; assay type: in vivo; conditions: BALB/cA nude mice; 60 mg/kg, 6 times every week for 3 weeks; Sorafenib oral 60 mg/kg
How it was run: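 Female BALB/cA nude mice (35–40 days, 18–22 g) bearing Bel-7402 xenografts; 6 mice per treated group, 12 in saline controls. Compound dosed at 60 mg/kg, 6 times weekly for 3 weeks, followed by one week of observation; tumor inhibition rate scored against controls.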

lung cancer cell A549 = assay: Effects on the adhesive ability of lung cancer cell A549; assay type: cell-based, human; conditions: Final concentration 1 x 1.0*10^(−5) mol/L
How it was run: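 A549 cells in 1640 medium with 10% FBS tested for adhesion to gelatin versus poly-lysine (PLL), with CCK8 used as read-out. Inhibition rate derived from the gelatin/PLL adhesion OD ratio of dosed cells relative to the undosed cell group.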

Raf-1(truncated) = assay: Raf-1 inhibitor screening by chemoluminescence method; assay type: biochemical; conditions: Final concentration 1 x 1.0*10^−5 mol/ml
Source text: 1. Inhibitory activity of the compound of the present invention on raf kinase
Raf-1 inhibitor screening by chemoluminescence method
Westernblot electrophoresis apparatus Rotaryshaker
Raf-1(truncated), Magnesium/ATP Cocktail, MEK1 unactive

[4] = system: renal carcinoma cell line GCR-1 transplanted tumor; assay type: in vivo, BALB/cA nude mice; conditions: BALB/cA nude mice; 60 mg/kg, 6 times every week for 3 weeks; Sorafenib oral 60 mg/kg
How it was run: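 Female BALB/cA nude mice (18–22 g) bearing GCR-1 renal carcinoma xenografts, 6 per treated group, 12 saline controls. Drug given at 60 mg/kg, 6 times weekly for 3 weeks, then one week of observation; tumor inhibition rate reported.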

[5] = system: human lung cancer cell strain A549; assay: MTT assay, inhibition of growth of human lung cancer cell strain A549; assay type: cell-based
How it was run: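 A549 cells grown in F12 with 10% FBS; growth read by MTT, inhibition rate from blank-corrected OD of drug wells versus control wells.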

[6] = system: human high-metastic lung cancer cell 95D; assay: Inhibition of human high-metastic lung cancer cell 95D migration (Boyden Chamber Transwell); assay type: cell-based; conditions: Final concentration 1 x 1.0*10^(−5) mol/L
How it was run: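 Boyden Transwell migration (8 μm pores) of 95D cells, RPMI-1640 with 10% FBS versus serum-free medium; inhibition rate calculated.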

[7] = system: human lung cancer A549 transplantation tumor; assay type: in vivo; conditions: BALB/cA nude mice; 60 mg/kg, 6 times every week for 3 weeks; Sorafenib oral 60 mg/kg
How it was run: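 Female BALB/cA nude mice, 35-40 days old, bearing A549 human lung cancer transplants; 6 per treatment group, 12 saline controls. Compound given at 60 mg/kg, 6 times weekly for 3 weeks, then observed one week.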

[8] = system: human umbilical vein endothelial cell HUVEC; assay: Lumen formation ability of HUVEC (Matrigel method); assay type: cell-based; conditions: Final concentration 1 x 1.0*10^(−5) mol/L
How it was run: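 HUVEC at passage 3–5, cultured in M199 at 37° C under 5% CO2, were plated on Matrigel with compound. Spontaneous lumen formation was scored as an inhibition rate.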

[9] = Final concentration 1 x 1.0*10^(−5) mol/L

CCCNC(=O)c1cc(Oc2ccc(NC(=O)Nc3ccc(Cl)c(OC)c3)c(F)c2)c2ccc(C(F)(F)F)cc2n1 [Compound 37]
Relative tumor reproduction rate T/C (%) [1]: 39.5% | Tumor growth inhibition rate (%) (mice S180 sarcoma): 24.1% | Inhibition rate, growth of HUVEC cell [2]: 19.65% | Relative tumor reproduction rate T/C (%) on human liver cancer cell bel-7402 transplantation tumor model in nude mice [3]: 36.3% | Inhibition rate, adhesion ability of human lung cancer cell A549 (lung cancer cell A549): 71.74% | Inhibition rate % on raf kinase (Raf-1(truncated)): 81.5% | Relative tumor reproduction rate T/C (%) on human renal carcinoma GCR-1 cell transplanted tumor model in nude mice [4]: 32.3% | Inhibition rate, growth of human lung cancer cell A549 [5]: 71.65% | Inhibition rate, 95D cell strain migration [6]: 79.25% | Relative tumor reproduction rate T/C (%) on human lung cancer A549 transplantation tumor in nude mice [7]: 38.3% | Inhibition rate, lumen formation ability of HUVEC [8]: 71.72%

O=C(Nc1ccc(Oc2ncnc3cc(F)ccc23)cc1)Nc1ccc(F)c(C(F)(F)F)c1 [Compound 20, N-(4-fluoro-3-(trifluoromethyl)phenyl)-N′-(4-(4-(7 fluoroquinazolinyl)oxy)phenyl)urea]
Relative tumor reproduction rate T/C (%) [1]: 40.1% | Tumor growth inhibition rate (%) (mice S180 sarcoma): 54.6% | Inhibition rate, growth of HUVEC cell [2]: 7.32% | Relative tumor reproduction rate T/C (%) on human liver cancer cell bel-7402 transplantation tumor model in nude mice [3]: 17.2% | Inhibition rate, adhesion ability of human lung cancer cell A549 (lung cancer cell A549): 95.31% | Inhibition rate % on raf kinase (Raf-1(truncated)): 87.7% | Relative tumor reproduction rate T/C (%) on human renal carcinoma GCR-1 cell transplanted tumor model in nude mice [4]: 13.1% | Inhibition rate, growth of human lung cancer cell A549 [5]: 88.32% | Inhibition rate, 95D cell strain migration [6]: 89.12% | Relative tumor reproduction rate T/C (%) on human lung cancer A549 transplantation tumor in nude mice [7]: 12.1% | Inhibition rate, lumen formation ability of HUVEC [8]: 88.54%

COc1ncncc1Oc1ccc(NC(=O)Nc2ccc(F)c(C(F)(F)F)c2)cc1 [Compound 23, N-(4-fluoro-3-(trifluoromethyl)phenyl)-N′-(4-(5-(4-methoxypyrimidinyl)oxy)phenyl)urea]
Relative tumor reproduction rate T/C (%) [1]: 39.7% | Tumor growth inhibition rate (%) (mice S180 sarcoma): 51.5% | Inhibition rate, growth of HUVEC cell [2]: 17.41% | Relative tumor reproduction rate T/C (%) on human liver cancer cell bel-7402 transplantation tumor model in nude mice [3]: 17.7% | Inhibition rate, adhesion ability of human lung cancer cell A549 (lung cancer cell A549): 77.56% | Inhibition rate % on raf kinase (Raf-1(truncated)): 89.9% | Relative tumor reproduction rate T/C (%) on human renal carcinoma GCR-1 cell transplanted tumor model in nude mice [4]: 9.1% | Inhibition rate, growth of human lung cancer cell A549 [5]: 55.41% | Inhibition rate, 95D cell strain migration [6]: 85.53% | Relative tumor reproduction rate T/C (%) on human lung cancer A549 transplantation tumor in nude mice [7]: 17.1% | Inhibition rate, lumen formation ability of HUVEC [8]: 97.56%

Cc1cc(Oc2ccc(NC(=O)Nc3ccc(Cl)c(C(F)(F)F)c3)cc2)c[nH]1 [Compound 28, N-(4-chloro-3-(trifluoromethyl)phenyl)-N′-(4-(4-(2-methyl-pyrryl)oxy)phenyl)urea]
Relative tumor reproduction rate T/C (%) [1]: 39.1% | Tumor growth inhibition rate (%) (mice S180 sarcoma): 11.5% | Inhibition rate, growth of HUVEC cell [2]: 20.55% | Relative tumor reproduction rate T/C (%) on human liver cancer cell bel-7402 transplantation tumor model in nude mice [3]: 17.5% | Inhibition rate, adhesion ability of human lung cancer cell A549 (lung cancer cell A549): 90.53% | Inhibition rate % on raf kinase (Raf-1(truncated)): 33.5% | Relative tumor reproduction rate T/C (%) on human renal carcinoma GCR-1 cell transplanted tumor model in nude mice [4]: 11.4% | Inhibition rate, growth of human lung cancer cell A549 [5]: 88.52% | Inhibition rate, 95D cell strain migration [6]: 70.53% | Relative tumor reproduction rate T/C (%) on human lung cancer A549 transplantation tumor in nude mice [7]: 13.6% | Inhibition rate, lumen formation ability of HUVEC [8]: 89.52%

CNC(=O)c1ncc(Oc2ccc(NC(=O)Nc3ccc(Br)c(C(F)(F)F)c3)cc2)c(OC)n1 [Compound 9, N-(4-bromo-3-(trifluoromethyl)phenyl)-N′-(4-(2-(N-methylaminoformoxyl)-5-(4-methoxypyrimidinyl)oxy)phenyl)urea]
Relative tumor reproduction rate T/C (%) [1]: 35.2% | Tumor growth inhibition rate (%) (mice S180 sarcoma): 55.9% | Inhibition rate, growth of HUVEC cell [2]: 11.54% | Relative tumor reproduction rate T/C (%) on human liver cancer cell bel-7402 transplantation tumor model in nude mice [3]: 36.8% | Inhibition rate, adhesion ability of human lung cancer cell A549 (lung cancer cell A549): 85.32% | Inhibition rate % on raf kinase (Raf-1(truncated)): 99.2% | Relative tumor reproduction rate T/C (%) on human renal carcinoma GCR-1 cell transplanted tumor model in nude mice [4]: 28.3% | Inhibition rate, growth of human lung cancer cell A549 [5, 9]: 61.54% | Inhibition rate, 95D cell strain migration [6]: 91.42% | Relative tumor reproduction rate T/C (%) on human lung cancer A549 transplantation tumor in nude mice [7]: 38.7% | Inhibition rate, lumen formation ability of HUVEC [8]: 91.45%

CCCNC(=O)c1cc(Oc2ccc(NC(=O)Nc3ccc(Cl)c(OC)c3)c(C(F)(F)F)c2)c2ccc(C(F)(F)F)cc2n1 [Compound 38]
Relative tumor reproduction rate T/C (%) [1]: 41.2% | Tumor growth inhibition rate (%) (mice S180 sarcoma): 59.2% | Inhibition rate, growth of HUVEC cell [2]: 14.56% | Relative tumor reproduction rate T/C (%) on human liver cancer cell bel-7402 transplantation tumor model in nude mice [3]: 31.5% | Inhibition rate, adhesion ability of human lung cancer cell A549 (lung cancer cell A549): 75.53% | Inhibition rate % on raf kinase (Raf-1(truncated)): 88.1% | Relative tumor reproduction rate T/C (%) on human renal carcinoma GCR-1 cell transplanted tumor model in nude mice [4]: 20.5% | Inhibition rate, growth of human lung cancer cell A549 [5]: 74.56% | Inhibition rate, 95D cell strain migration [6]: 80.53% | Relative tumor reproduction rate T/C (%) on human lung cancer A549 transplantation tumor in nude mice [7]: 36.5% | Inhibition rate, lumen formation ability of HUVEC [8]: 65.55%

N-(4-chloro-3-(trifluoromethyl)phenyl)-N′-(4-(2-(N-methylaminoformoxyl)-4-(7 fluoroquinazolinyl)oxy)phenyl)urea [Compound 4]
Relative tumor reproduction rate T/C (%) [1]: 33.15% | Tumor growth inhibition rate (%) (mice S180 sarcoma): 50.1% | Inhibition rate, growth of HUVEC cell [2]: 5.12% | Relative tumor reproduction rate T/C (%) on human liver cancer cell bel-7402 transplantation tumor model in nude mice [3]: 15.3% | Inhibition rate, adhesion ability of human lung cancer cell A549 (lung cancer cell A549): 89.71% | Inhibition rate % on raf kinase (Raf-1(truncated)): 82.2% | Relative tumor reproduction rate T/C (%) on human renal carcinoma GCR-1 cell transplanted tumor model in nude mice [4]: 9.6% | Inhibition rate, growth of human lung cancer cell A549 [5, 9]: 91.12% | Inhibition rate, 95D cell strain migration [6]: 96.38% | Relative tumor reproduction rate T/C (%) on human lung cancer A549 transplantation tumor in nude mice [7]: 12.3% | Inhibition rate, lumen formation ability of HUVEC [8]: 86.77%

CCc1ccc(NC(=O)Nc2ccc(Oc3ccnc4cc(F)c(C)cc34)cc2)cc1C(F)(F)F [Compound 34, N-(4-ethyl-3-(trifluoromethyl)phenyl)-N′-(4-(4-(6-methyl-7-fluoro-quinolinyl)oxy)phenyl)urea]
Relative tumor reproduction rate T/C (%) [1]: 45.9% | Tumor growth inhibition rate (%) (mice S180 sarcoma): 52.6% | Inhibition rate, growth of HUVEC cell [2]: 19.52% | Relative tumor reproduction rate T/C (%) on human liver cancer cell bel-7402 transplantation tumor model in nude mice [3]: 31.5% | Inhibition rate, adhesion ability of human lung cancer cell A549 (lung cancer cell A549): 76.54% | Inhibition rate % on raf kinase (Raf-1(truncated)): 96.2% | Relative tumor reproduction rate T/C (%) on human renal carcinoma GCR-1 cell transplanted tumor model in nude mice [4]: 36.1% | Inhibition rate, growth of human lung cancer cell A549 [5]: 59.52% | Inhibition rate, 95D cell strain migration [6]: 63.65% | Relative tumor reproduction rate T/C (%) on human lung cancer A549 transplantation tumor in nude mice [7]: 22.3% | Inhibition rate, lumen formation ability of HUVEC [8]: 66.52%
